The values below are quoted from earlier work in patent US20240299430A1, “METHODS AND COMPOSITIONS FOR TREATING LONG COVID-19” (Intrinsic Medicine, Inc., priority 2021, published 2024).

In data set [1] the test system is murine and human derived macrophages stimulated with LPS and various pro-inflammatory cytokines. Conditions: in vitro.
Data set [2] relates to mouse models of rheumatoid arthritis. Conditions: administered orally, LPS challenge.
For data set [3], the system named is PDL1, COX2 and select chemokines, such as CCL2 (MCP1) and CCL5.

With `CC(=O)N[C@H]1[C@H]([C@H](O)[C@H](O)CO)O[C@@](OC[C@H]2O[C@@H](O[C@H]3[C@H](O)[C@@H](O)[C@H](O)O[C@@H]3CO)[C@H](O)[C@@H](O)[C@H]2O)(C(=O)O)C[C@@H]1O` [6′SL, 6′-sialyllactose], the “effect on IL-1β, IL-2, IL-4, IL-6, IL-12, IFN γ or TNF-α” value in data set [1] is reported as “reductions”. Regarding sialyllactose, the “clinical assessments of disease” value in data set [2] was “benefit in clinical assessments of disease”. For the compound `CC(=O)N[C@H]1C([C@H](O)[C@H](O)CO)O[C@@](O[C@@H]2C(O)[C@H](O[C@@H]3C(CO)O[C@@H](O)C(O)[C@H]3O)OC(CO)[C@@H]2O)(C(=O)O)C[C@H]1O` (some centres unmarked) [3′SL, 3′-sialyllactose], in data set [1], the “effect on IL-1β, IL-2, IL-4, IL-6, IL-12, IFN γ or TNF-α” value is “reductions” and the “extent of cytokine reduction, 3′-SL compared with 6′SL” value is listed as “more significant reductions”. The “effect on PDL1, COX2 and chemokines CCL2 (MCP1) and CCL5” value in data set [3] is given as “reduce”.
